Results: patent US11331351B2, “Bacillus strains improving health and performance of production animals” (priority 2015, dated 2022)
Values after ≈ are worked out from the molar mass of the structure shown. Like-named read-outs stand apart in the source and are kept apart here. Bridge positions count the residues as written; N and C are the ends. Square brackets hold non-standard residues; d marks the D form. Peptide text beside a SMILES is read from it. * marks the point of attachment. Ileψ(thiazoline)Cys = CC[C@H](C)[C@H](N)C1=N[C@H](C(=O)*)CS1; dOrn = NCCC[C@@H](N)C(=O)O

Columns and labels:
B. subtilis DSM 29871 [1] = type: cell-based, Bacillus subtilis; conditions: for MIC: Bacillus subtilis
[2] = system: B. amyloliquefaciens DSM 29869; type: cell-based, Bacillus amyloliquefaciens; conditions: for MIC: Bacillus amyloliquefaciens
B. subtilis DSM 29870 [3] = type: cell-based, Bacillus subtilis; conditions: for MIC: Bacillus subtilis
Clostridium perfringens = type: in vivo, broiler chickens Cobb×Cobb; conditions: bacitracin 50 ppm; for Lesion score (d 21): 0 to 3 score; for BWG (g/bird) (d 1-d 28) / Dead birds with necrotic enteritis lesions (%) (d 1-d 28) / FCR (d 1-d 28) / Total mortality (%) (d 1-d 28): infected
B. subtilis DSM 29871 [4] = conditions: EFSA Journal 2012; 10(6): 2740; cited from earlier work
[5] = system: B. amyloliquefaciens DSM 29869; conditions: EFSA Journal 2012; 10(6): 2740; cited from earlier work
B. subtilis DSM 29870 [6] = conditions: EFSA Journal 2012; 10(6): 2740; cited from earlier work
[7] = DSM29871, biological replicate MIC 1, 37° C., 20-24 h, read-out: MIC 1
[8] = DSM29871, biological replicate MIC 2, 37° C., 20-24 h, read-out: MIC 2
[9] = DSM29871, biological replicate MIC 3, 37° C., 20-24 h, read-out: MIC 3
[10] = DSM29869, biological replicate MIC 1, 37° C., 20-24 h, read-out: MIC 1
[11] = DSM29869, biological replicate MIC 2, 37° C., 20-24 h, read-out: MIC 2
[12] = DSM29869, biological replicate MIC 3, 37° C., 20-24 h, read-out: MIC 3
[13] = DSM29870, biological replicate MIC 1, 37° C., 20-24 h, read-out: MIC 1
[14] = DSM29870, biological replicate MIC 2, 37° C., 20-24 h, read-out: MIC 2
[15] = DSM29870, biological replicate MIC 3, 37° C., 20-24 h, read-out: MIC 3
[16] = Trial 1, DSM 29870 1.10^9 CFU/kg of feed
[17] = Trial 2, DSM 29870 5.10^8 CFU/kg of feed
[18] = Trial 3, DSM 29870 5.10^8 CFU/kg of feed
[19] = biological replicate MIC 1, 37° C., 20-24 h
[20] = biological replicate MIC 2, 37° C., 20-24 h
[21] = biological replicate MIC 3, 37° C., 20-24 h

Row | Molecule | MIC (B. subtilis DSM 29871 [1]; [7]) [µg/mL] | MIC (B. subtilis DSM 29871 [1]; [8]) [µg/mL] | MIC (B. subtilis DSM 29871 [1]; [9]) [µg/mL] | MIC [2, 10] [µg/mL] | MIC [2, 11] [µg/mL] | MIC [2, 12] [µg/mL] | MIC (B. subtilis DSM 29870 [3]; [13]) [µg/mL] | MIC (B. subtilis DSM 29870 [3]; [14]) [µg/mL] | MIC (B. subtilis DSM 29870 [3]; [15]) [µg/mL] | EFSA breakpoints (B. subtilis DSM 29871 [4]) [µg/mL] | EFSA breakpoints [5] [µg/mL] | EFSA breakpoints (B. subtilis DSM 29870 [6]) [µg/mL] | also measured
1 | CCC[C@@H]1C[C@@H](C(=O)N[C@@H]([C@H]2O[C@H](SC)[C@H](O)[C@@H](O)[C@H]2O)[C@H](C)Cl)N(C)C1 [Clindamycin] | 0.5 (≈ 1.18 µM) | 0.25 (≈ 0.588 µM) | 0.5 (≈ 1.18 µM) | 1 (≈ 2.35 µM) | 0.5 (≈ 1.18 µM) | 1 (≈ 2.35 µM) | 0.25 (≈ 0.588 µM) | 0.25 (≈ 0.588 µM) | 0.25 (≈ 0.588 µM) |  |  |  | 
2 | CC[C@H](C)[C@H](N)C1=N[C@H](C(=O)N[C@@H](CC(C)C)C(=O)N[C@H](CCC(=O)O)C(=O)N[C@H](C(=O)N[C@H]2CCCCNC(=O)[C@H](CC(N)=O)NC(=O)[C@@H](CC(=O)O)NC(=O)[C@H](Cc3cnc[nH]3)NC(=O)[C@@H](Cc3ccccc3)NC(=O)[C@H]([C@@H](C)CC)NC(=O)[C@@H](CCCN)NC2=O)[C@@H](C)CC)CS1 [bacitracin] ({Ileψ(thiazoline)Cys}-L[dE]IK[dOrn]I[dF]H[dD]N; lactam 4-C) |  |  |  |  |  |  |  |  |  |  |  |  | Lesion score (d 21) (Clostridium perfringens; [16]): 0.2a; BWG (g/bird) (d 1-d 28) (Clostridium perfringens; [16]): 633ab g/bird; Dead birds with necrotic enteritis lesions (%) (d 1-d 28) (Clostridium perfringens; [16]): 1.6b %; FCR (d 1-d 28) (Clostridium perfringens; [16]): 1.813bc; Total mortality (%) (d 1-d 28) (Clostridium perfringens; [16]): 5.0b %; Lesion score (d 21) (Clostridium perfringens; [17]): 0.6b; BWG (g/bird) (d 1-d 28) (Clostridium perfringens; [17]): 665ab g/bird; Dead birds with necrotic enteritis lesions (%) (d 1-d 28) (Clostridium perfringens; [17]): 6.3c %; FCR (d 1-d 28) (Clostridium perfringens; [17]): 1.759b; Total mortality (%) (d 1-d 28) (Clostridium perfringens; [17]): 12.5bc %; Lesion score (d 21) (Clostridium perfringens; [18]): 0.6a; BWG (g/bird) (d 1-d 28) (Clostridium perfringens; [18]): 645a g/bird; Dead birds with necrotic enteritis lesions (%) (d 1-d 28) (Clostridium perfringens; [18]): 4.7bc %; FCR (d 1-d 28) (Clostridium perfringens; [18]): 1.786bc; Total mortality (%) (d 1-d 28) (Clostridium perfringens; [18]): 15.0a %
3 | O=C(N[C@H](CO)[C@H](O)c1ccc([N+](=O)[O-])cc1)C(Cl)Cl [Chloramphenicol] | 8 (≈ 24.8 µM) | 4 (≈ 12.4 µM) | 8 (≈ 24.8 µM) | 4 (≈ 12.4 µM) | 4 (≈ 12.4 µM) | 4 (≈ 12.4 µM) | 4 (≈ 12.4 µM) | 8 (≈ 24.8 µM) | 4 (≈ 12.4 µM) | 8 | 8 | 8 | 
4 | CC[C@H]1OC(=O)[C@H](C)[C@@H](O[C@H]2C[C@@](C)(OC)[C@@H](O)[C@H](C)O2)[C@H](C)[C@@H](O[C@@H]2O[C@H](C)C[C@H](N(C)C)[C@H]2O)[C@](C)(O)C[C@@H](C)C(=O)[C@H](C)[C@@H](O)[C@]1(C)O [Erythromycin] | 0.125 (≈ 0.17 µM) | 0.125 (≈ 0.17 µM) | 0.125 (≈ 0.17 µM) | 0.5 (≈ 0.681 µM) | 0.06 (≈ 0.0818 µM) | 0.06 (≈ 0.0818 µM) | 0.125 (≈ 0.17 µM) | 0.125 (≈ 0.17 µM) | 0.125 (≈ 0.17 µM) | 4 | 4 | 4 | 
5 | NC[C@H]1O[C@H](O[C@H]2[C@H](O)[C@@H](O[C@H]3O[C@H](CO)[C@@H](O)[C@H](N)[C@H]3O)[C@H](N)C[C@@H]2N)[C@H](O)[C@@H](O)[C@@H]1O [Kanamycin] | 2 (≈ 4.13 µM) | 1 (≈ 2.06 µM) | 2 (≈ 4.13 µM) | 2 (≈ 4.13 µM) | 0.5 (≈ 1.03 µM) | 0.5 (≈ 1.03 µM) | 2 (≈ 4.13 µM) | 1 (≈ 2.06 µM) | 2 (≈ 4.13 µM) |  |  |  | 
6 | CN[C@H](CC(C)C)C(=O)N[C@H]1C(=O)N[C@@H](CC(N)=O)C(=O)N[C@H]2C(=O)N[C@H]3C(=O)N[C@H](C(=O)N[C@H](C(=O)O)c4cc(O)cc(O)c4-c4cc3ccc4O)[C@H](O)c3ccc(c(Cl)c3)Oc3cc2cc(c3O[C@@H]2O[C@H](CO)[C@@H](O)[C@H](O)[C@H]2O[C@H]2C[C@](C)(N)[C@H](O)[C@H](C)O2)Oc2ccc(cc2Cl)[C@H]1O [Vancomycin] | 0.25 (≈ 0.173 µM) |  |  | 0.25 (≈ 0.173 µM) |  | 0.25 (≈ 0.173 µM) | 0.25 (≈ 0.173 µM) |  |  | 4 | 4 | 4 | MIC (B. subtilis DSM 29871 [1]; DSM29871, read-out: MIC 2): 0.25 µg/mL (≈ 0.173 µM); MIC (B. subtilis DSM 29871 [1]; DSM29871, read-out: MIC 3): 0.25 µg/mL (≈ 0.173 µM); MIC ([2]; DSM29869, read-out: MIC 2): 0.25 µg/mL (≈ 0.173 µM); MIC (B. subtilis DSM 29870 [3]; DSM29870, read-out: MIC 2): 0.25 µg/mL (≈ 0.173 µM); MIC (B. subtilis DSM 29870 [3]; DSM29870, read-out: MIC 3): 0.25 µg/mL (≈ 0.173 µM)
7 | [H]/N=C(/N)N[C@H]1[C@H](O)[C@@H](O)[C@H](O[C@@H]2O[C@@H](C)[C@](O)(C=O)[C@H]2O[C@@H]2O[C@@H](CO)[C@H](O)[C@@H](O)[C@@H]2NC)[C@@H](N/C(N)=N\[H])[C@@H]1O [Streptomycin] | 32 (≈ 55 µM) | 16 (≈ 27.5 µM) | 32 (≈ 55 µM) | 2 (≈ 3.44 µM) | 4 (≈ 6.88 µM) | 4 (≈ 6.88 µM) | 4 (≈ 6.88 µM) | 4 (≈ 6.88 µM) | 8 (≈ 13.8 µM) | 8 | 8 | 8 | 
8 | CN(C)[C@@H]1C(O)=C(C(N)=O)C(=O)[C@@]2(O)C(O)=C3C(=O)c4c(O)cccc4[C@@](C)(O)[C@H]3C[C@@H]12 [Tetracycline] | 2 (≈ 4.5 µM) | 4 (≈ 9 µM) | 4 (≈ 9 µM) | 16 (≈ 36 µM) | 8 (≈ 18 µM) | 8 (≈ 18 µM) | 0.25 (≈ 0.563 µM) | 0.25 (≈ 0.563 µM) | 0.25 (≈ 0.563 µM) |  |  |  | MIC 1 [2, 19]: 16 µg/mL (≈ 36 µM)
9 | Gentamycin |  |  |  |  |  |  |  |  |  | 4 | 4 | 4 | MIC 1 (B. subtilis DSM 29871 [1]; [19]): 0.25 µg/mL; MIC 2 (B. subtilis DSM 29871 [1]; [20]): 0.125 µg/mL; MIC 3 (B. subtilis DSM 29871 [1]; [21]): 0.25 µg/mL; MIC 1 [2, 19]: 0.5 µg/mL; MIC 2 [2, 20]: 0.125 µg/mL; MIC 3 [2, 21]: 0.06 µg/mL; MIC 1 (B. subtilis DSM 29870 [3]; [19]): 0.25 µg/mL; MIC 2 (B. subtilis DSM 29870 [3]; [20]): 0.125 µg/mL; MIC 3 (B. subtilis DSM 29870 [3]; [21]): 0.25 µg/mL
